Measured values reported in patent US20080207708A1, “Oxazole and Thiazole Compounds and Their Use in the Treatment of Pge2 Mediated Disorders” (GLAXO GROUP LIMITED, priority 2005, published 2008).
Where a name gives a salt, the structure may show the parent alone.

Legend:
gastric lesions in rats = conditions: lesions induced by taurocholate acid, aspirin or indomethacin, J. Pharmacol. Exp. Ther. 1992, 263(1), 374-380; cited from earlier work
[1] = tested on: rat model of chronic constriction injury; conditions: Anesthesia and Analgesia 2001, 93, 1012-7; cited from earlier work
[2] = tested on: rodent model of post-operative pain; conditions: Anesthesia and Analgesia 2001, 92, 233-238; cited from earlier work
EP1 receptors [3] = biological target: T1, EP1 receptors (Homo sapiens, UniProt P34995); assay: human EP1 calcium mobilisation assay (CHO-K1 cells, FLIPR, PGE2); format: cell-based; design: expressed in transfected cells; host or cells: CHO-K1 cells, pCIN vector; conditions: free bases or sodium salts; averages of a number of experiments; read-out: functional pKi value, human EP1 calcium mobilisation assay (converted)
T1 sequence (P34995 1-402): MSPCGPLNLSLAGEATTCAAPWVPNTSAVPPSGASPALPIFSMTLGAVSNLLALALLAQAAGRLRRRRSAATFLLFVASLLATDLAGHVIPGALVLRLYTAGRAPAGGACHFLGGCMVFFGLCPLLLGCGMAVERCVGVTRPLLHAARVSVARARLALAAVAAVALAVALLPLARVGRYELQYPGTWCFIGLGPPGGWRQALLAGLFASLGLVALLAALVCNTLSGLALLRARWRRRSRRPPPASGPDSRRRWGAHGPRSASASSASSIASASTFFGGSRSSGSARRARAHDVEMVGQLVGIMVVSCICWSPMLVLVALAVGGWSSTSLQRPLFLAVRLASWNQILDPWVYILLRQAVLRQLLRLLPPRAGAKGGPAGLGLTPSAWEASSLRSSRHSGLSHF
Summary of the method: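 CHO-K1 cells stably transfected with human EP1 cDNA, loaded with Fluo-4 AM after 24 h culture at 37° C. Compounds added first, then PGE2; antagonism read as inhibition of PGE2-induced intracellular calcium rise on FLIPR. pIC50 taken as concentration giving half-maximal inhibition, from curve fitting.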

EP1 receptors [4] = biological target: T1, EP1 receptors; assay: Binding assay for the human prostanoid EP1 receptor (competition with [3H]-PGE2); design: expressed in transfected cells; host or cells: CHO-K1 cells, membrane fraction; conditions: [3H]-PGE2 competition; averages of a number of experiments; read-out: pIC50 value, binding assay for the human prostanoid EP1 receptor (converted)
Summary of the method: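 Membranes from CHO-K1 cells stably expressing human EP1 incubated with compounds and [3H]-PGE2 (3 nM final) for 30 min at 30° C in MES buffer with EDTA and MgCl2, pH 6. Bound radioactivity measured after filtration; IC50 from nonlinear fit of specific binding inhibition.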

Row | Ki (EP1 receptors [3]) [nM] | IC50 (EP1 receptors [4]) [nM] | SMILES | gastric lesions (gastric lesions in rats) | hyperalgesia and allodynia [1] | mechanical hyperalgesia [2]
1 | – | – | O=C(O)CCc1ccccc1CC1C2CCC(O2)C1c1nc(C(=O)NCCCCC2CCCCC2)co1 (centres unmarked) [SQ 33961] | inhibit gastric lesions | – | –
2 | – | – | Cc1cc(Cl)ccc1S(=O)(=O)NC[C@H]1C2CCC(CC2)[C@@H]1/C=C\CCCC(=O)O [ONO-8711] | – | reduces hyperalgesia and allodynia | inhibits mechanical hyperalgesia
3 | – | – | O=C(O)Cc1ccc(CCNS(=O)(=O)c2ccc(Cl)cc2)cc1 [BM 13505] | inhibit gastric lesions | – | –
4 | > 1000 | ≤ 31.6 | CC(C)COc1ccc(Cl)cc1Nc1nc(-c2nc3ccc(CN(C)C)cc3[nH]2)cs1 [Example 180, N-{5-Chloro-2-[(2-methylpropyl)oxy]phenyl}-4-{5-[(dimethylamino)methyl]-1H-benzimidazol-2-yl}-1,3-thiazol-2-aminehydrochloride] | – | – | –
5 | < 1000 | ≤ 1000 | CN1CCN(Cc2ccc3nc(-c4coc(Cc5cc(Cl)ccc5OCc5ccccc5)n4)[nH]c3c2)CC1 [Example 171, 2-[2-({5-chloro-2-[(phenylmethyl)oxy]phenyl}-methyl)-1,3-oxazol-4-yl]-5-[(4-methyl-1-piperazinyl)methyl]-1H-benzimidazolehydrochloride] | – | – | –
6 | > 1000 | ≤ 1000 | CNC(=O)c1csc(Cc2cc(Cl)ccc2OCc2ccccc2)n1 [Example 97, 2-({5-Chloro-2-[(phenylmethyl)oxy]phenyl}methyl)-N-methyl-1,3-thiazole-4-carboxamide] | – | – | –
7 | < 1000 | ≤ 1000 | Clc1ccc(OCc2ccccc2)c(Cc2nc(-c3cn4ccccc4n3)cs2)c1 [Example 160, 2-[2-({5-Chloro-2-[(phenylmethyl)oxy]phenyl}methyl)-1,3-thiazol-4-yl]imidazo[1,2-a]pyridine] | – | – | –
8 | < 1000 | ≤ 1000 | O=C(NCc1ccncc1)c1csc(Cc2cc(Cl)ccc2OCc2ccccc2)n1 [Example 96, 2-({5-Chloro-2-[(phenylmethyl)oxy]phenyl}methyl)-N-(4-pyridinylmethyl)-1,3-thiazole-4-carboxamide] | – | – | –
9 | < 1000 | ≤ 31.6 | CC(C)COc1ccc(Cl)cc1Cc1nc(-c2nc3ccc(CCN4CCN(C)CC4)cc3[nH]2)cs1 [Example 117, 2-[2-({5-Chloro-2-[(2-methylpropyl)oxy]phenyl}-methyl)-1,3-thiazol-4-yl]-5-(2-(4-methyl-1-piperazinyl)ethyl]-1H-benzimidazole] | – | – | –
10 | < 1000 | ≤ 1000 | Cc1nnc(-c2csc(Cc3cc(Cl)ccc3OCc3ccccc3)n2)[nH]1 [Example 159, 3-[2-({5-Chloro-2-[(phenylmethyl)oxy]phenyl}methyl)-1,3-thiazol-4-yl]-5-methyl-1H-1,2,4-triazole] | – | – | –
11 | < 1000 | ≤ 1000 | CN1CCN(Cc2ccc(C(=O)Nc3csc(Cc4cc(Cl)ccc4OCc4ccccc4)n3)cc2)CC1 [Example 114, N-[2-({5-chloro-2-[(phenylmethyl)oxy]-phenyl}methyl)-1,3-thiazol-4-yl]-4-[(4-methyl-1-piperazinyl)methyl]-benzamide] | – | – | –
12 | < 1000 | ≤ 31.6 | CC(C)COc1ccc(Cl)cc1Cc1nc(-c2nc3ccc(CCN4CCCCC4)cc3[nH]2)co1 [Example 168, 2-[2-({5-chloro-2-[(2-methylpropyl)oxy]phenyl}methyl)-1,3-oxazol-4-yl]-5-[2-(1-piperidinyl)ethyl]-1H-benzimidazolehydrochloride] | – | – | –
13 | ≤ 31.6 | ≤ 31.6 | O=C(NS(=O)(=O)c1ccccc1)c1csc(Cc2cc(Cl)ccc2OCc2cc(F)c(F)cc2F)n1 [Example 106, 2-[(5-Chloro-2-{[(2,4,5-trifluorophenyl)methyl]oxy}phenyl)methyl]-N-(phenylsulfonyl)-1,3-thiazole-4-carboxamide] | – | – | –
14 | > 1000 | ≤ 1000 | CC(C)COc1ccc(Cl)cc1Nc1nc(-c2nc3ccc(CN4CCCCC4)cc3[nH]2)cs1 [Example 182, N-{5-Chloro-2-[(2-methylpropyl)oxy]phenyl}-4-[5-(1-piperidinylmethyl)-1H-benzimidazol-2-yl]-1,3-thiazol-2-amine] | – | – | –
15 | < 1000 | ≤ 31.6 | O=C(NS(=O)(=O)c1ccccc1)c1csc(Cc2cc(Cl)ccc2OCc2ccc(F)cc2F)n1 [Example 102, 2-[(5-Chloro-2-{[(2,4-difluorophenyl)methyl]oxy}phenyl)methyl]-N-(phenylsulfonyl)-1,3-thiazole-4-carboxamide] | – | – | –
16 | > 1000 | ≤ 1000 | CC(=O)Nc1csc(Cc2cc(Cl)ccc2OCc2ccccc2)n1 [Example 127, N-[2-({5-Chloro-2-[(phenylmethyl)oxy]phenyl}methyl)-1,3-thiazol-4-yl]acetamide] | – | – | –
17 | > 1000 | ≤ 1000 | O=C(Nc1ccc(CN2CCCC2)cc1)c1csc(Cc2cc(Cl)ccc2OCc2ccccc2)n1 [Example 119, 2-({5-Chloro-2-[(phenylmethyl)oxy]phenyl}-methyl)-N-[4-(1-pyrrolidinylmethyl)phenyl]-1,3-thiazole-4-carboxamidehydrochloride] | – | – | –
18 | < 1000 | ≤ 1000 | Clc1ccc(OCc2ccccc2)c(Cc2nc(-c3nc4ccc(CN5CCCC5)cc4[nH]3)co2)c1 [Example 173, 2-[2-({5-chloro-2-[(phenylmethyl)oxy]phenyl}-methyl)-1,3-oxazol-4-yl]-5-(1-pyrrolidinylmethyl)-1H-benzimidazolehydrochloride] | – | – | –
19 | < 1000 | ≤ 1000 | O=C(Nc1csc(Cc2cc(Cl)ccc2OCc2ccccc2)n1)c1ccc(CN2CCCCC2)cc1 [Example 113, N-[2-({5-Chloro-2-[(phenylmethyl)oxy]phenyl}methyl)-1,3-thiazol-4-yl]-4-(1-piperidinylmethyl)benzamide] | – | – | –
20 | < 1000 | ≤ 1000 | CC(C)COc1ccc(Cl)cc1Cc1nc(-c2nc3ccc(N4CCCC4)nc3[nH]2)cs1 [Example 145, 2-[2-({5-Chloro-2-[(2-methylpropyl)oxy]phenyl}methyl)-1,3-thiazol-4-yl]-5-(1-pyrrolidinyl)-1H-imidazo[4,5-b]pyridinehydrochloride] | – | – | –
21 | < 1000 | ≤ 1000 | CC(c1nc(C(=O)O)cs1)c1cc(Cl)ccc1OCc1ccccc1 (centres unmarked) [Example 50] | – | – | –
22 | ≤ 31.6 | ≤ 31.6 | CC(C)COc1ccc(Cl)cc1Cc1nc(-c2nc3cnccc3[nH]2)cs1 [Example 135, 2-[2-({5-Chloro-2-[(2-methyl-propyl)oxy]-phenyl}methyl)-1,3-thiazol-4-yl]-1H-imidazo[4,5-c]pyridinehydrochloride] | – | – | –
23 | > 1000 | ≤ 1000 | CN(C)Cc1ccc(NC(=O)c2csc(Cc3cc(Cl)ccc3OCc3ccccc3)n2)cc1 [Example 118, 2-({5-Chloro-2-[(phenylmethyl)oxy]phenyl}methyl)-N-{4-[(dimethylamino)methyl]phenyl}-1,3-thiazole-4-carboxamide hydrochloride] | – | – | –
